Where two headings read alike, the source gives them in different places.
Columns and labels:
Assay in all cases: SelectScreen Kinase Profiling, single point inhibition and IC50 for off-target kinases
Type in all cases: biochemical
off-target kinases [1] = target: off-target kinases (Homo sapiens, UniProt P54646)
off-target kinases [2] = target: T1, off-target kinases (Homo sapiens, UniProt Q8IVH8); details: MAP4K3 (GLK), LanthaScreen Binding
T1 sequence (Q8IVH8 1-894): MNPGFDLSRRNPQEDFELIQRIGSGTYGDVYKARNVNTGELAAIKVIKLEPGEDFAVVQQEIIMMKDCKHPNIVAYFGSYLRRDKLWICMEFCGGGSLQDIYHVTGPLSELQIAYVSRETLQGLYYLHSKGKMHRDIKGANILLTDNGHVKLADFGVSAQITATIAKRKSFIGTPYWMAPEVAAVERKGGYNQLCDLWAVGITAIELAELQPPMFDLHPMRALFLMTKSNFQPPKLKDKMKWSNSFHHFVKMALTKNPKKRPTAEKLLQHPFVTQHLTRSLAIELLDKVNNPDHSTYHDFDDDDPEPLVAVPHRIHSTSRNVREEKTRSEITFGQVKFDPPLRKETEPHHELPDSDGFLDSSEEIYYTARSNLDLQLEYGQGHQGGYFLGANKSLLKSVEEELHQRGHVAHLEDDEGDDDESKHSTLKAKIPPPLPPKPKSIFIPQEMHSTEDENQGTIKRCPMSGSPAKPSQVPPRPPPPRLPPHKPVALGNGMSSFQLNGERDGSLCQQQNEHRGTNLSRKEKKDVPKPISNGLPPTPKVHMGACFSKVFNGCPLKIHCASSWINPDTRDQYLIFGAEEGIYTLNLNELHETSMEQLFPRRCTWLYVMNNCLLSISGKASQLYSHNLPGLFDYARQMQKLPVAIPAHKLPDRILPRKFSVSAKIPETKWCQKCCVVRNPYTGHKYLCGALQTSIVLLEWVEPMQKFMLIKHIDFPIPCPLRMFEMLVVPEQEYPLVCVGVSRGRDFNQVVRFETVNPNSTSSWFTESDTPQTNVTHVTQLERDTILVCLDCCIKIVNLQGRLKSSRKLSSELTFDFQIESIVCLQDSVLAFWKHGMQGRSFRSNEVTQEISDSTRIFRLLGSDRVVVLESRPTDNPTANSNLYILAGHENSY

off-target kinases [3] = target: off-target kinases (Homo sapiens, UniProt P80192); details: MAP3K9 (MLK1), ATP Km app, ZLYTE
Sequence of off-target kinases (Homo sapiens, UniProt P80192) (P80192 whole entry): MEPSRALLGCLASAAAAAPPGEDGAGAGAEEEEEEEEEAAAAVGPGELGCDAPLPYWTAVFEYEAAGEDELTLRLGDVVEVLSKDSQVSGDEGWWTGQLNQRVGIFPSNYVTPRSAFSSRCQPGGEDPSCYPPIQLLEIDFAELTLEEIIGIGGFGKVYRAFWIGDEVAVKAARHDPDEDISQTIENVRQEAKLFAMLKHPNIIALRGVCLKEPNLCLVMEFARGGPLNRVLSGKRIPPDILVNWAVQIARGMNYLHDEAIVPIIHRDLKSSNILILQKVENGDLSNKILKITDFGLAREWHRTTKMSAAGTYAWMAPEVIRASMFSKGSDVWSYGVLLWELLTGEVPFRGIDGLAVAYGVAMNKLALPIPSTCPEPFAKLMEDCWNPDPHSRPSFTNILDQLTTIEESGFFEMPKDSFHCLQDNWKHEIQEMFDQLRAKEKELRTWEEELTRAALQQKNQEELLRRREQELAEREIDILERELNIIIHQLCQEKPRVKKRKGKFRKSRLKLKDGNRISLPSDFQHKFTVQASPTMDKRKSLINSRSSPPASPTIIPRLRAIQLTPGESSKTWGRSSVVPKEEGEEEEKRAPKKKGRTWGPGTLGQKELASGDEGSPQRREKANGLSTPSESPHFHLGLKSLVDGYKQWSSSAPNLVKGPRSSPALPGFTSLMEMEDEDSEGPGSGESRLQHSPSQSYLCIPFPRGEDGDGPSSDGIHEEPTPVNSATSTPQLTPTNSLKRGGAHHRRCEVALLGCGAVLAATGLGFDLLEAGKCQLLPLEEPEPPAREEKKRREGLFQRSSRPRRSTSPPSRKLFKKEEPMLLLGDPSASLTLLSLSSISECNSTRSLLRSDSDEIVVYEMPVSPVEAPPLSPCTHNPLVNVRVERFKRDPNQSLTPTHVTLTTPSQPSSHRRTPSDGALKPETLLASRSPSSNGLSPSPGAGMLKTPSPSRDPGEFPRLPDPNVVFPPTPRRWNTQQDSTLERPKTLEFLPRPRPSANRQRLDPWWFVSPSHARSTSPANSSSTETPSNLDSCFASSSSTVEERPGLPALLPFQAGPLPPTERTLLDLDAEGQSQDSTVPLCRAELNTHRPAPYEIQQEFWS

Sequence of off-target kinases (Homo sapiens, UniProt P54646) (P54646 whole entry): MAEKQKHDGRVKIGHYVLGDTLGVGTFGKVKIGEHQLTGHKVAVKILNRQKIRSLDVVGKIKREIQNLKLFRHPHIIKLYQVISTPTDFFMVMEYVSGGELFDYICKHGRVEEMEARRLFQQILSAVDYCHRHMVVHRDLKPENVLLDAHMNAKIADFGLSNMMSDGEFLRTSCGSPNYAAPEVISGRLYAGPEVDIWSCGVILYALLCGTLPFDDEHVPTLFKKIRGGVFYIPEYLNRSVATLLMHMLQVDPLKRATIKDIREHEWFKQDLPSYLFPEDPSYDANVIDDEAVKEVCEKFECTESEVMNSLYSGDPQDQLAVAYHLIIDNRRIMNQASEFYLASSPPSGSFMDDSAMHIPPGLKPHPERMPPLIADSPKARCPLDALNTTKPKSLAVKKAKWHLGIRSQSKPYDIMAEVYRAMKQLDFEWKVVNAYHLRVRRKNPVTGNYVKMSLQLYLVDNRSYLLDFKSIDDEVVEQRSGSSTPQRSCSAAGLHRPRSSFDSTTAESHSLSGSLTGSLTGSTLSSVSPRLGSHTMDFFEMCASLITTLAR

Work on N#Cc1cc(-c2ncnc(Nc3ccc(N4CCN(C5COC5)CC4)cc3)n2)ccc1OC1CCOCC1 [Compound 1, 5-(4-((4-(4-(oxetan-3-yl)piperazin-1-yl)phenyl)amino)-1,3,5-triazin-2-yl)-2-((tetrahydro-2H-pyran-4-yl)oxy)benzonitrile] yielded an inhibition (off-target kinases [1]; AMPK (A2/B2/G1), LanthaScreen Binding, read-out: % Inhibition 1) of 35%, an inhibition (off-target kinases [1]; AMPK (A2/B2/G1), LanthaScreen Binding, read-out: % Inhibition 2) of 35% and an inhibition (off-target kinases [1]; AMPK (A2/B2/G1), LanthaScreen Binding, read-out: % Inhibition Avg) of 35%. It also gave an inhibition (off-target kinases [1]; AMPK (A2/B2/G2), LanthaScreen Binding, read-out: % Inhibition 1) of 44%, an inhibition (off-target kinases [1]; AMPK (A2/B2/G2), LanthaScreen Binding, read-out: % Inhibition 2) of 45% and an inhibition (off-target kinases [1]; AMPK (A2/B2/G2), LanthaScreen Binding, read-out: % Inhibition Avg) of 45%. For the same molecule, the inhibition (off-target kinases [1]; AMPK A2/B1/G1, ATP Km app, ZLYTE, read-out: % Inhibition 1) was 47%, the inhibition (off-target kinases [1]; AMPK A2/B1/G1, ATP Km app, ZLYTE, read-out: % Inhibition 2) was 46% and the inhibition (off-target kinases [1]; AMPK A2/B1/G1, ATP Km app, ZLYTE, read-out: % Inhibition Avg) was 46%. For the same molecule, the inhibition (off-target kinases [2]; read-out: % Inhibition 1) was 16%, the inhibition (off-target kinases [2]; read-out: % Inhibition 2) was 21% and the inhibition (off-target kinases [2]; read-out: % Inhibition Avg) was 18%. It also gave an inhibition (off-target kinases [3]; read-out: % Inhibition 1) of 68%, an inhibition (off-target kinases [3]; read-out: % Inhibition 2) of 73% and an inhibition (off-target kinases [3]; read-out: % Inhibition Avg) of 70%.
